Measurements as given in the CheMixHub ionic liquid set.

Assay: xn = mol fraction of the nth substance listed
Conditions: 100 kPa

CC[n+]1ccn(C)c1.O=S(=O)([O-])C(F)(F)F + CN(C)C=O + OCCO
viscosity [mPa·s]
Conditions | 298.15 K | 303.15 K | 308.15 K | 313.15 K | 318.15 K | 323.15 K
x2 = 0.0208, x3 = 0.1868 | 29.3 | 24.8 | 21.15 | 18.23 | 15.83 | 13.8
x2 = 0.0306, x3 = 0.198 | 27.9 | 23.6 | 20.16 | 17.39 | 15.11 | 13.18
x2 = 0.0398, x3 = 0.2206 | 25.8 | 21.9 | 18.69 | 16.15 | 14.06 | 12.27
x2 = 0.0679, x3 = 0.2281 | 23.5 | 20 | 17.13 | 14.83 | 12.93 | 11.29
x2 = 0.0847, x3 = 0.2475 | 21.3 | 18.2 | 15.61 | 13.54 | 11.83 | 10.34
x2 = 0.1005, x3 = 0.2658 | 19.4 | 16.5 | 14.24 | 12.39 | 10.85 | 9.48
x2 = 0.1248, x3 = 0.2717 | 17.7 | 15.2 | 13.09 | 11.41 | 10.01 | 8.76
x2 = 0.1637, x3 = 0.2744 | 15.6 | 13.4 | 11.59 | 10.14 | 8.92 | 7.81
x2 = 0.1852, x3 = 0.2798 | 14.3 | 12.3 | 10.67 | 9.35 | 8.25 | 7.23
x2 = 0.2057, x3 = 0.2849 | 13.1 | 11.3 | 9.84 | 8.64 | 7.64 | 6.7
x2 = 0.2567, x3 = 0.2666 | 11.6 | 10.1 | 8.83 | 7.78 | 6.9 | 6.06
x2 = 0.3179, x3 = 0.2469 | 9.96 | 8.69 | 7.63 | 6.76 | 6.02 | 5.29
x2 = 0.3633, x3 = 0.2306 | 8.7 | 7.63 | 6.74 | 6 | 5.34 | 4.85
x2 = 0.4128, x3 = 0.2106 | 7.83 | 6.89 | 6.11 | 5.45 | 4.89 | 4.31
x2 = 0.469, x3 = 0.1967 | 6.48 | 5.75 | 5.13 | 4.61 | 4.16 | 3.68
x2 = 0.5074, x3 = 0.1828 | 5.85 | 5.22 | 4.68 | 4.22 | 3.85 | 3.19
x2 = 0.5624, x3 = 0.1668 | 4.75 | 4.27 | 3.86 | 3.51 | 3.19 | 2.84
x2 = 0.6135, x3 = 0.152 | 3.92 | 3.55 | 3.24 | 2.96 | 2.71 | 2.43
x2 = 0.6611, x3 = 0.1382 | 3.32 | 3.02 | 2.76 | 2.53 | 2.32 | 2.15
x2 = 0.7126, x3 = 0.1243 | 2.61 | 2.41 | 2.23 | 2.07 | 1.92 | 1.74
x2 = 0.7536, x3 = 0.1124 | 2.33 | 2.14 | 1.98 | 1.83 | 1.7 | 1.58
x2 = 0.7982, x3 = 0.1005 | 1.83 | 1.7 | 1.59 | 1.49 | 1.4 | 1.29
x2 = 0.8449, x3 = 0.0889 | 1.53 | 1.42 | 1.33 | 1.24 | 1.17 | 1.09
x2 = 0.8948, x3 = 0.0712 | 1.22 | 1.14 | 1.07 | 1.01 | 0.95 | 0.89
